Experimental findings from US7872134B2, “2-{[2-(substituted amino)ethyl]sulfonyl}ethyl N,N-bis(2-chloroethyl)phosphorodiamidates” (Telik, Inc., priority 2007, dated 2011) are described below.

For series [1], the system named is DLD-1 (colorectal adenocarcinoma). As to the kind of experiment: Cytotoxicity/Growth Inhibition Assay (CellTiter-Glo). The format is cell-based. The following applies: Homo sapiens, 96 h, DLD-1 cells, hydrochloride salts, cultured 4 days. As to the method: The following examples illustrate the beneficial effect of the compounds of this invention against human cancer cell lines in vitro.
The human cancer cell line DLD-1 (colorectal adenocarcinoma) was obtained from the American Type Culture Collection, Manassas, Va., U.S.A. The CellTiter-Glo assay kit was obtained from Promega Corporation, Madison, Wis., U.S.A. All products were used in accordance with manufacturer's directions. All assays were conducted in triplicate wells, with dimethyl sulfoxide (DMSO) solvent control. The extent of cell growth was expressed as a percentage of the signal from the solvent control wells.
Log-phase cells were trypsinized, collected by centrifugation, and resuspended in a small volume of fresh medium, and the density of viable cells was determined following Trypan Blue staining. Cells were diluted in fresh media (3×10^3 cells/mL for DLD-1), and added at 150 μL/well to 96-well plates, and incubated for several hours to allow attachment in the case of adherent cells. […] After incubation for 10 minutes at room temperature, and the plate was read with a luminometer.
A general note: ATP-based viability assays read luminescence as a measure of living cells.

The test system of a further series is MIA PaCa-2 tumor. As to the kind of experiment: MiaPaCa-2 Xenograft Assay, Intraperitoneal Administration. The format is in vivo, athymic nu/nu mice. The following applies: for tumor mass inhibition relative to vehicle: autopsy day 19 after transplantation. The protocol:
Male athymic nu/nu mice, 6-8 weeks old (approximately 20 g), were implanted subcutaneously in the right fore flank with 20-30 mg pieces of MIA PaCa-2 tumor harvested from similar nu/nu mice that had previously been implanted with the MIA PaCa-2 tumor. […] A group of mice was treated with compound 1A as the hydrochloride salt dissolved in aqueous 5% dextrose, at 100 mg/Kg by intraperitoneal injection once/day for 5 consecutive days; with vehicle and cyclophosphamide (30 mg/Kg) also administered by intraperitoneal injection for the same time. Tumor mass was estimated from volume on days 10, 13, and 17; and measured at autopsy on day 19 after transplantation.

One may read the IC50 as the midpoint of a concentration-inhibition curve.

`N[C@@H](CCC(=O)N[C@@H](CS(=O)(=O)CCOP(=O)(N(CCCl)CCCl)N(CCCl)CCCl)C(=O)N[C@@H](C(=O)O)c1ccccc1)C(=O)O` [canfosfamide, reference compound]: the IC50 in series [1] worked out at 11 µM.
Consider `CCN(CC)CCS(=O)(=O)CCOP(N)(=O)N(CCCl)CCCl` (centres unmarked) [compound 1A, 2-{[2-(diethylamino)ethyl]sulfonyl}ethyl N,N-bis(2-chloroethyl)phosphorodiamidate], for which the “tumor mass inhibition relative to vehicle” value with MIA PaCa-2 tumor (100 mg/Kg intraperitoneal once/day for 5 consecutive days, hydrochloride salt) amounted to 83%. The “safety at the dose tested” value in the series with MIA PaCa-2 tumor (nu/nu mice, 100 mg/Kg intraperitoneal once/day for 5 days) was “safe and non-toxic”. Moreover, the IC50 in series [1] came to 13 µM.
Consider `O=P1(N(CCCl)CCCl)NCCCO1` (centres unmarked) [cyclophosphamide, reference compound], for which, in the series on MIA PaCa-2 tumor (30 mg/Kg intraperitoneal once/day for 5 consecutive days), the “tumor mass inhibition relative to vehicle” value came out at 84%.
